Test results reported in patent publication US20220133894A1, “BISPHOSPHONATE-LINKED COMPOUNDS” (OREGON HEALTH & SCIENCE UNIVERSITY, priority 2019, published 2022).

How the values were obtained:
[1] = system: prostate specific antigen (PSA); assay: PSA expression by qRT/PCR in LNCaP cells; assay type: cell-based, human; conditions: LNCaP cells in androgen depleted media
Method: Cells were cultured in media depleted of androgen and after a washout of 72 hrs were treated with the synthetic androgen R1881, KBU2046, enzalutamide and/or vehicle (control), and resultant effects upon induction of the androgen-responsive gene, prostate specific antigen (PSA) were measured (FIG. 3A).
LNCaP or VCaP cells cultured in hormone free media were treated with R1881 (R), KBU2046 (46) and/or enzalutamide (E). (FIGS. 3A and 3B) Effects on AR-responsive gene expression. PSA expression was measured by qRT/PCR, normalized to GAPDH and expressed as a percent of control cells (N=3 replicates); * denotes P<0.05 for groups separated by bar. (FIGS. 3C and 3D) Effects on cell growth. Three day growth assays were performed. Data are the number of viable cells, expressed as % of control (N=3 replicates); * P<0.05 compared to control. (E) Effects on AR activation. Western blots of nuclear (N) and cytoplasmic (C) preparations of cell extracts were probed for AR, laminin 1 or α-tubulin. (FIGS. 3F and 3G) Effects on tumor outgrowth after androgen deprivation therapy. LNCaP/AR-luc cells were implanted subcutaneously (N=6 mice/cohort) or orthotopic (N=15 mice/cohort were implanted; N=5 yielded tumors) into castrate mice, treatment with KBU2046 began as noted, and weekly IVIS imaging performed. Data are tumor size, expressed as luminescence intensity. All data are expressed as mean±SEM.
RNA was isolated and qRT/PCR performed as previously described by us (Ding et al., J Biomol Tech 18, 321-330 (2007)). Resultant data were analyzed using the 2^−ΔΔt method (Livak et al., Methods 25, 402-408 (2001)), normalized to GAPDH, for the following primer/probe sets (ABI) PSA (Hs02576345_m1) and GAPDH (Hs99999905_m1). Assays were performed in triplicate, and were repeated.

AR = assay: Subcellular localization of androgen receptor, Western blot of nuclear and cytoplasmic fractions; assay type: cell-based, human; conditions: LNCaP and VCaP cells, 10 μM KBU2046
Source text: Several considerations warranted a deeper examination of the effect of KBU2046 on AR function. […] Additionally, AR is a client protein of HSP90, AR function requires HSP90-mediated chaperone action, and direct inhibitors of HSP90 decrease client protein expression and inhibit AR function (24-26 Fang et al., J Biol Chem 271, 28697-28702 (1996); Saporita et al., Prostate 67, 509-520 (2007); and Ni et al., Mol Cell Biol 30, 1243-1253 (2010)). […] It is a selective HSP90 activity modulator (SHAM), and selectively modulates client proteins that regulate cell motility. However, the effect of KBU2046 on AR expression and function had not been examined. […]
LNCaP or VCaP cells cultured in hormone free media were treated with R1881 (R), KBU2046 (46) and/or enzalutamide (E). […] PSA expression was measured by qRT/PCR, normalized to GAPDH and expressed as a percent of control cells (N=3 replicates); * denotes P<0.05 for groups separated by bar. […] Data are the number of viable cells, expressed as % of control (N=3 replicates); * P<0.05 compared to control. […] Data are tumor size, expressed as luminescence intensity. All data are expressed as mean±SEM.
LNCaP and VCaP cells were pre-incubated in the charcoal-striped medium containing 10 μM KBU2046 or vehicle control for 72 hours. […] Protein was quantified by BCA assay (Thermo-Fisher Scientific, Waltham, Mass.), per manufacturer's instructions. […]

With `O=C1c2ccccc2OCC1c1ccc(F)cc1` (centres unmarked) [KBU2046, 3-(4-fluorophenyl)chroman-4-one] the PSA expression [1] was “no significant effect” and the “AR expression or nuclear localization in response to R1881, and its inhibition by enzalutamide” value (AR) was “did not affect”.
